Measurements reported in ChEMBL document CHEMBL1201862, “PubChem BioAssay data set” (2004).
Calls of active or inactive are those of the source.

Key:
Beta-galactosidase = Beta-galactosidase (Escherichia coli, UniProt Q8VNN2); experiment: detection-enzyme interference by beta-gal modulators – biochemical, E. coli enzyme, set 3, artefact control for CCR6 antagonist project, dose response (AID 504712); format: functional
Coagulation factor XII = target: T1, Coagulation factor XII (Homo sapiens, UniProt P00748); experiment: activated coagulation factor XII inhibitor potency, concentration-effect curve, cell-free (AID 716); format: functional
T1 sequence (P00748 whole entry): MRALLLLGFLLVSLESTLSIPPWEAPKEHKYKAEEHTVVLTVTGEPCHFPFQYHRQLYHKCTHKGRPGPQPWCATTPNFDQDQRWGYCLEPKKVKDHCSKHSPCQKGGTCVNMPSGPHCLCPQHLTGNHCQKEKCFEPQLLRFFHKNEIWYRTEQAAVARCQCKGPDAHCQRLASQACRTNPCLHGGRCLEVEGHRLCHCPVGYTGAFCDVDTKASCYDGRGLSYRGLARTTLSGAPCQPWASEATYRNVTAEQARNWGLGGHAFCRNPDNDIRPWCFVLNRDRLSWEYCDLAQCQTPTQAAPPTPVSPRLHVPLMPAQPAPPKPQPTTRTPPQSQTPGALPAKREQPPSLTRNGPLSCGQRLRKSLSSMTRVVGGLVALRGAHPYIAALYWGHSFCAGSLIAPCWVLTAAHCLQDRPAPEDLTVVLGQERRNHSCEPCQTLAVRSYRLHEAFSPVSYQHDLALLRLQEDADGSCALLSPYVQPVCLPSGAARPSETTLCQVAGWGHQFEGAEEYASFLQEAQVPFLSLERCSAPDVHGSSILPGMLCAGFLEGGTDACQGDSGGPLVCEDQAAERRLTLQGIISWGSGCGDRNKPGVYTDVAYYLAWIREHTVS

[1] = target: DNA dC->dU-editing enzyme APOBEC-3A (Homo sapiens, UniProt P31941); experiment: A3A deaminase inhibition for selectivity – biochemical, dose response (AID 504722); format: functional
Phosphomannomutase 2 = Phosphomannomutase 2 (Homo sapiens, UniProt O15305); experiment: Counter screen SAR assay for PMM2 inhibitors via a fluorescence intensity assay. [Related pubchem assays (depositor defined):AID1545, AID1574]
[2] = target: Glucose-6-phosphate 1-dehydrogenase (Homo sapiens, UniProt P11413); experiment: inhibition of Homo sapiens G6PD, dose series – biochemical, fluorescence, selectivity assay for P. falciparum G6PD inhibitor project, dose response (AID 504792); format: functional
[3] = target: T2, Alkaline phosphatase, tissue-nonspecific isozyme (Homo sapiens, UniProt P05186); experiment: potency against alkaline phosphatase TNAP – biochemical, luminescent, dose response, SAR follow-up (AID 1056)
T2 sequence (P05186 whole entry): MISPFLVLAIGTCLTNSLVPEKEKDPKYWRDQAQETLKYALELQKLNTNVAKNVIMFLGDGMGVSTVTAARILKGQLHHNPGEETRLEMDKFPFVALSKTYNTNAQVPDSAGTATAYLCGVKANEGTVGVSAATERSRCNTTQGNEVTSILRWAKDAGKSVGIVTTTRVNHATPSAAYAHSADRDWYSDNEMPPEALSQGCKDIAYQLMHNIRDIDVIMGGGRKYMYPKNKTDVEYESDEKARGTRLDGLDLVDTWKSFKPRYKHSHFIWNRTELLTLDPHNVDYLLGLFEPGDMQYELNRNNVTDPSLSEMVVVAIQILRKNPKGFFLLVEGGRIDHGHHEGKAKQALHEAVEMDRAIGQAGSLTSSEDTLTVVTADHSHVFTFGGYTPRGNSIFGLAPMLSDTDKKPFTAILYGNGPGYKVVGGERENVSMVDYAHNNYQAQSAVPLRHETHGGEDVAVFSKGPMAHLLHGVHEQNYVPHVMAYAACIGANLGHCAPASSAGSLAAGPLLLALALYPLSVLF

[4] = target: Phosphoethanolamine/phosphocholine phosphatase (Homo sapiens, UniProt Q8TCT1); experiment: SAR assay for compounds that inhibit PHOSPHO1. [Related pubchem assays (depositor defined):AID1545, AID1565, AID1574]
[5] = target: DNA dC->dU-editing enzyme APOBEC-3G (Homo sapiens, UniProt Q9HC16); experiment: Dose Response confirmation of small molecule APOBEC3G DNA Deaminase Inhibitors via a fluorescence-based single-stranded DNA deaminase assay. [Related pubchem assays (depositor defined):AID493012, AID493028]; format: functional
[6] = target: Alkaline phosphatase, placental type (Homo sapiens, UniProt P05187); experiment: human placental alkaline phosphatase inhibition – biochemical, luminescence, confirmation (AID 1512); format: functional
[7] = target: T3, Intestinal-type alkaline phosphatase (Homo sapiens, UniProt P09923); experiment: Dose Response confirmation of uHTS hits from a small molecule inhibitors of human intestinal alkaline phosphatase via a luminescent assay. [Related pubchem assays (depositor defined):AID2544, AID2574]; format: functional
[8] = target: T4, Short transient receptor potential channel 4 (Mus musculus, UniProt Q9QUQ5); experiment: potentiation of DAMGO-evoked TRPC4 calcium signal – cell-based, HEK293 TRPC4/mu-opioid, Fluo-4 calcium, EC20 DAMGO, dose response (AID 434941); format: functional
T4 sequence (Q9QUQ5 whole entry): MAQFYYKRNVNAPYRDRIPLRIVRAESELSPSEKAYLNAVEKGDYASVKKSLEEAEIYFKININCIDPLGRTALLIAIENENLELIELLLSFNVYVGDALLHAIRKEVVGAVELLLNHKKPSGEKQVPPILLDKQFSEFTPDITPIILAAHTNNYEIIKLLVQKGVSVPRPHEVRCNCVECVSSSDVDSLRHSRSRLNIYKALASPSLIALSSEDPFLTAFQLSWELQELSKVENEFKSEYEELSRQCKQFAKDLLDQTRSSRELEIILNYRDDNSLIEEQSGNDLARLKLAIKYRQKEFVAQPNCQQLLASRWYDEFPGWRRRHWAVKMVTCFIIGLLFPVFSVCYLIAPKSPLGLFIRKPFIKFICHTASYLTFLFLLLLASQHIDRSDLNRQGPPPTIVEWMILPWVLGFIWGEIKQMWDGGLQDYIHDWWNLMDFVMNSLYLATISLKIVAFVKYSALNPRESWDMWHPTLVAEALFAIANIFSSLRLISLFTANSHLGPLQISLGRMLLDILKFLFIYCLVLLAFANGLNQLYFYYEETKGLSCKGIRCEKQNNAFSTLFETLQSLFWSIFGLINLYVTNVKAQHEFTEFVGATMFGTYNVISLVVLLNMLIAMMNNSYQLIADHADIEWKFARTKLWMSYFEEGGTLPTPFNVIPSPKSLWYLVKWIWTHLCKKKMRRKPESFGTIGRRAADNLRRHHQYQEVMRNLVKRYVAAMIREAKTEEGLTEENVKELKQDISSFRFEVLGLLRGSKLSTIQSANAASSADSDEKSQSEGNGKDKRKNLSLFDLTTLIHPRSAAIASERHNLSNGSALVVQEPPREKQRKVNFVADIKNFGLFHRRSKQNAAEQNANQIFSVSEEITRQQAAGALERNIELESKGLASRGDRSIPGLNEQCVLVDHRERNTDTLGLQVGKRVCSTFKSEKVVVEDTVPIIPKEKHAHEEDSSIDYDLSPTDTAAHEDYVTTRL

Caspase-7 = Caspase-7 (Homo sapiens, UniProt P55210); experiment: activation of caspase-7 zymogen – biochemical, absorbance, counter-screen for procaspase-3 activator project, dose response (AID 489013)
Caspase-3 = target: T5, Caspase-3 (Homo sapiens, UniProt P42574); experiment: activation of caspase-3 zymogen – biochemical, absorbance, dose response (AID 489014)
T5 sequence (P42574 whole entry): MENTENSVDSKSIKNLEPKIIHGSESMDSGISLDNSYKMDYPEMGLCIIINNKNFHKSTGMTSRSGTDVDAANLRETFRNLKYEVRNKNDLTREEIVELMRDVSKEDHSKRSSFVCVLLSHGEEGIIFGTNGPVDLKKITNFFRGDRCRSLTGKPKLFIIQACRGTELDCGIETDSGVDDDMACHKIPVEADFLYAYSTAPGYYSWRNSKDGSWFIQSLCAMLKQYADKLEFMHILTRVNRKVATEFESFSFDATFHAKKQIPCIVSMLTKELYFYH

[9] = target: Potassium voltage-gated channel subfamily KQT member 2 (Rattus norvegicus, UniProt O88943); experiment: potentiation of rat KCNQ2 current – cell-based, retigabine-insensitive compounds, dose response (AID 2654); format: functional
[10] = target: Intestinal-type alkaline phosphatase (Mus musculus, UniProt P24822); experiment: PubChem AID 488785; format: functional
[11] = target: T6, Histone-lysine N-methyltransferase NSD2 (Homo sapiens, UniProt O96028); format: biochemical
T6 sequence (O96028 whole entry): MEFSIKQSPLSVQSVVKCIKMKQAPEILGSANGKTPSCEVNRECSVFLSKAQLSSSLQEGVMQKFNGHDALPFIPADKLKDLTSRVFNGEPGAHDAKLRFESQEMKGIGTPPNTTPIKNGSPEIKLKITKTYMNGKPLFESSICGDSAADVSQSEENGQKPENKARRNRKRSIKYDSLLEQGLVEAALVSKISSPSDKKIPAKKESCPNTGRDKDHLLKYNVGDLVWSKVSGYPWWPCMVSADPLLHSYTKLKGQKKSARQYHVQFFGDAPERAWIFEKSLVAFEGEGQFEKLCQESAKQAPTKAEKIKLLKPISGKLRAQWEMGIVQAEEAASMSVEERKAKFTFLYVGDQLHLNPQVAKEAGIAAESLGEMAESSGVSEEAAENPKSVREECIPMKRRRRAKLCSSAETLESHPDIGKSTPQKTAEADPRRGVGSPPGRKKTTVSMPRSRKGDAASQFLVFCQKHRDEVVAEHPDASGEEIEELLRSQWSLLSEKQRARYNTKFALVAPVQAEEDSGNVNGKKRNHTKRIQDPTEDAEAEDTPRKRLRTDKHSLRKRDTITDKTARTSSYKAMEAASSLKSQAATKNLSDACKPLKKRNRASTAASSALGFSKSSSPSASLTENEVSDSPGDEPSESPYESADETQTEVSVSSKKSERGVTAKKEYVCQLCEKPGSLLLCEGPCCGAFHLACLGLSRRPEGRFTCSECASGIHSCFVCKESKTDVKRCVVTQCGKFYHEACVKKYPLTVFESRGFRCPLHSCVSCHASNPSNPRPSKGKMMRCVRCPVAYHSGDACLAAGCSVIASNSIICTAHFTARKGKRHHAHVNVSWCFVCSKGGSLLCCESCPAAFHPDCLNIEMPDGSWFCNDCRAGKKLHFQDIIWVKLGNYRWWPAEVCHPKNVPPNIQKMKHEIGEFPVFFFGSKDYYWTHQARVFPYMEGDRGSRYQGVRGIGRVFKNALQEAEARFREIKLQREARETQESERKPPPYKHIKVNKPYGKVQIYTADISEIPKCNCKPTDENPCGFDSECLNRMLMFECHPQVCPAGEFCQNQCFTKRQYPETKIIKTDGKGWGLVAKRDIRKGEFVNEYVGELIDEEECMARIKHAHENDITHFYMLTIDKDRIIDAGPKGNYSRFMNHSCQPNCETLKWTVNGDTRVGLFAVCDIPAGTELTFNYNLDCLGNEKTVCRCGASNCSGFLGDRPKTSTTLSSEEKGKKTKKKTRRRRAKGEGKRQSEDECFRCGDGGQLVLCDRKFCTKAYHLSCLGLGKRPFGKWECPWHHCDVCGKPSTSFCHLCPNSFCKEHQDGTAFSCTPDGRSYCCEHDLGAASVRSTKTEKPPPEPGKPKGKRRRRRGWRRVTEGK

ORF 73 = ORF 73 (Human herpesvirus 8, UniProt O40947); experiment: KSHV LANA DNA-binding disruption – biochemical, fluorescence polarization, cherry-picked samples, dose response (AID 504725); set-up: species or system Human gammaherpesvirus 8;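 further: fluorescence polarization of a labeled DNA duplex reporting LANA DNA binding; potency is for inhibitors that block LANA binding to the DNA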
[12] = target: 1-phosphatidylinositol 4,5-bisphosphate phosphodiesterase beta-3 (Homo sapiens, UniProt Q01970); experiment: Fluorescence-based biochemical high throughput dose response assay to identify inhibitors of phospholipase C isozymes (PLC-B3).
[13] = target: T2, Alkaline phosphatase, tissue-nonspecific isozyme; experiment: TNAP enzyme inhibition by screening hits, dose response, selectivity assay for mouse IAP inhibitor project, biochemical, human TNAP, uHTS hits (AID 488906); format: functional
[14] = target: T3, Intestinal-type alkaline phosphatase; experiment: inhibition of human intestinal alkaline phosphatase – biochemical, dose response (AID 488876); format: functional
[15] = target: 1-phosphatidylinositol 4,5-bisphosphate phosphodiesterase gamma-1 (Homo sapiens, UniProt P19174); experiment: Counterscreen for inhibitors of phospholipase C isozymes (PLC-B3): Fluorescence-based biochemical high throughput dose response assay to identify inhibitors of phospholipase C isozymes (PLC-gamma1).

T3 sequence (P09923 whole entry): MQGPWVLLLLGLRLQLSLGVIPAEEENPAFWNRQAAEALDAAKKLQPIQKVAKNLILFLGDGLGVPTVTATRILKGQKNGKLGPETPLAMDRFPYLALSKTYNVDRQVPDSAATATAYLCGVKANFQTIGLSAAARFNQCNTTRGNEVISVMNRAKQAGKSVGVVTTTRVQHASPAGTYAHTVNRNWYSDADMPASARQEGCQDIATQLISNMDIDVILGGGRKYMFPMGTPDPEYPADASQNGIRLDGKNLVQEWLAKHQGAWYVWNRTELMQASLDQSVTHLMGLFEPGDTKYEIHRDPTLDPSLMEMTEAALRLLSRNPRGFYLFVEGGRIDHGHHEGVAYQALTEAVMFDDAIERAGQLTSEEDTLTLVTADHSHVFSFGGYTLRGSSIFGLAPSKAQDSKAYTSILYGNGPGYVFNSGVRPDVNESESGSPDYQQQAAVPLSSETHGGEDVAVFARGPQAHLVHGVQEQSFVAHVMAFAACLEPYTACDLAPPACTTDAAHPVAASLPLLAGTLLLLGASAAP
Sequence of Glucose-6-phosphate 1-dehydrogenase (P11413 whole entry): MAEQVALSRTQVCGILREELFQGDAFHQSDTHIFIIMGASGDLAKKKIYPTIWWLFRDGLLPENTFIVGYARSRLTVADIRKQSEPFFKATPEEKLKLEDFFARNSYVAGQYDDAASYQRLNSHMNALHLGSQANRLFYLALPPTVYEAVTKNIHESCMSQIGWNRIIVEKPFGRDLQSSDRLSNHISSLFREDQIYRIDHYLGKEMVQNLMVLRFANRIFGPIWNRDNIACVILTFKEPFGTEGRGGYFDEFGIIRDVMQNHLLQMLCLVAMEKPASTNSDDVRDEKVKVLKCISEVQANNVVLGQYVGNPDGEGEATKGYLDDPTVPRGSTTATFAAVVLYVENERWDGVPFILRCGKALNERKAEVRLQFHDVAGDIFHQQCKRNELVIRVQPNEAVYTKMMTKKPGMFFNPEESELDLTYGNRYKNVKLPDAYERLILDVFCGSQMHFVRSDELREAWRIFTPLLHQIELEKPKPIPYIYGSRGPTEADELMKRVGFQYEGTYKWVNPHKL
Sequence of Caspase-7 (P55210 24-198 limits assumed): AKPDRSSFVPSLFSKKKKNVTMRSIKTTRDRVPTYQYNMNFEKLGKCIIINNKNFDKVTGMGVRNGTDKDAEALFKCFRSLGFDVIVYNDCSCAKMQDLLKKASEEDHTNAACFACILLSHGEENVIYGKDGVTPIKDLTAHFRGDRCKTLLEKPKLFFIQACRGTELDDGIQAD
Sequence of Caspase-7 (P55210 207-303 limits assumed): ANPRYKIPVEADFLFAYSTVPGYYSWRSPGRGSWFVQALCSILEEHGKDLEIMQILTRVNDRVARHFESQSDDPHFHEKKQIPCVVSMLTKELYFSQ
Sequence of Phosphoethanolamine/phosphocholine phosphatase (Q8TCT1 whole entry): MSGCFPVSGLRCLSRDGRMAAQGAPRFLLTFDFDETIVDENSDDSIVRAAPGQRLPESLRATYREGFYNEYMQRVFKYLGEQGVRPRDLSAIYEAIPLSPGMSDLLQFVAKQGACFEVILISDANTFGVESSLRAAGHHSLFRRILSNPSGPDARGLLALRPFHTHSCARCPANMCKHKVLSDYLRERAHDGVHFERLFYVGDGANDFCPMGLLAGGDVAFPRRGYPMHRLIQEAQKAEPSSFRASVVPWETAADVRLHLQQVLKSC
Sequence of 1-phosphatidylinositol 4,5-bisphosphate phosphodiesterase beta-3 (Q01970 whole entry): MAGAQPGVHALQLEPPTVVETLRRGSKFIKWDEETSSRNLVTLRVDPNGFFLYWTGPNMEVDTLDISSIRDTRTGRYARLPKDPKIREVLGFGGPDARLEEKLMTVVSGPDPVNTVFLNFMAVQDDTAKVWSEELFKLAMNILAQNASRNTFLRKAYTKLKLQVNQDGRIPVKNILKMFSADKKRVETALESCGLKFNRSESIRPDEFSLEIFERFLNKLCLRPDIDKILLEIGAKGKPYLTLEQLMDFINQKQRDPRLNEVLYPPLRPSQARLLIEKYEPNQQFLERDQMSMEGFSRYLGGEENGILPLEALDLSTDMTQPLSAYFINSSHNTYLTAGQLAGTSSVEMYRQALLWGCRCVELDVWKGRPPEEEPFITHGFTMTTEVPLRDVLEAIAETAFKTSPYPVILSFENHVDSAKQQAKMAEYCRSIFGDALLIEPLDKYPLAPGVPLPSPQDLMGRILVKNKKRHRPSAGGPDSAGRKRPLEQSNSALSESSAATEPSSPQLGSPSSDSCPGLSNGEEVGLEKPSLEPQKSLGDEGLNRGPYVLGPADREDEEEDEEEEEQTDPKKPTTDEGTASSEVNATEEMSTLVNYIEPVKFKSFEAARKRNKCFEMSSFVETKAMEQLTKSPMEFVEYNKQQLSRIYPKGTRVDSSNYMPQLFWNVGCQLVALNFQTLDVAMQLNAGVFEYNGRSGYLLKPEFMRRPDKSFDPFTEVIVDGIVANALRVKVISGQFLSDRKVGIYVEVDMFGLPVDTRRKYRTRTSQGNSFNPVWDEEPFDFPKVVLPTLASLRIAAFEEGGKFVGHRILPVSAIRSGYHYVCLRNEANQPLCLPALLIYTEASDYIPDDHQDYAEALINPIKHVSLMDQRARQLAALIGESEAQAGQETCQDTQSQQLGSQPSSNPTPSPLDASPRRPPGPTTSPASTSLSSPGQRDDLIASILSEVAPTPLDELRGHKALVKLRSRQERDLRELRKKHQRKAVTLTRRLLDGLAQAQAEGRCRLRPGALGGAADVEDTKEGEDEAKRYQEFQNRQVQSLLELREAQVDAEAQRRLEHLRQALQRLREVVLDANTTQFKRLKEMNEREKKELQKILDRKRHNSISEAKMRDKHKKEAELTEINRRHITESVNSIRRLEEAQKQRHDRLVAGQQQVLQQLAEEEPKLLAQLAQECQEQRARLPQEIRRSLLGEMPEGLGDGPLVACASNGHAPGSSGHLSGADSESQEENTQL
Sequence of DNA dC->dU-editing enzyme APOBEC-3G (Q9HC16 whole entry): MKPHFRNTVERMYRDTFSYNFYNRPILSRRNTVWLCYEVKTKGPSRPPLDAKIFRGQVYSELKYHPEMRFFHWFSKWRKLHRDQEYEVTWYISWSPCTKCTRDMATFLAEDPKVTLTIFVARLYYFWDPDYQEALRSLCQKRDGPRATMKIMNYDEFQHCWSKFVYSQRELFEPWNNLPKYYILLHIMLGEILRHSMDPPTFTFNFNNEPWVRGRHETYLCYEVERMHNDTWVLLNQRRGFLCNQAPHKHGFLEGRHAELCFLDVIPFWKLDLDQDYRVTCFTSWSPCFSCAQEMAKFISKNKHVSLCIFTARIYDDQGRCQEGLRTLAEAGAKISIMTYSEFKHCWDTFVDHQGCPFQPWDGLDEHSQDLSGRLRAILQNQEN
Sequence of Potassium voltage-gated channel subfamily KQT member 2 (O88943 whole entry): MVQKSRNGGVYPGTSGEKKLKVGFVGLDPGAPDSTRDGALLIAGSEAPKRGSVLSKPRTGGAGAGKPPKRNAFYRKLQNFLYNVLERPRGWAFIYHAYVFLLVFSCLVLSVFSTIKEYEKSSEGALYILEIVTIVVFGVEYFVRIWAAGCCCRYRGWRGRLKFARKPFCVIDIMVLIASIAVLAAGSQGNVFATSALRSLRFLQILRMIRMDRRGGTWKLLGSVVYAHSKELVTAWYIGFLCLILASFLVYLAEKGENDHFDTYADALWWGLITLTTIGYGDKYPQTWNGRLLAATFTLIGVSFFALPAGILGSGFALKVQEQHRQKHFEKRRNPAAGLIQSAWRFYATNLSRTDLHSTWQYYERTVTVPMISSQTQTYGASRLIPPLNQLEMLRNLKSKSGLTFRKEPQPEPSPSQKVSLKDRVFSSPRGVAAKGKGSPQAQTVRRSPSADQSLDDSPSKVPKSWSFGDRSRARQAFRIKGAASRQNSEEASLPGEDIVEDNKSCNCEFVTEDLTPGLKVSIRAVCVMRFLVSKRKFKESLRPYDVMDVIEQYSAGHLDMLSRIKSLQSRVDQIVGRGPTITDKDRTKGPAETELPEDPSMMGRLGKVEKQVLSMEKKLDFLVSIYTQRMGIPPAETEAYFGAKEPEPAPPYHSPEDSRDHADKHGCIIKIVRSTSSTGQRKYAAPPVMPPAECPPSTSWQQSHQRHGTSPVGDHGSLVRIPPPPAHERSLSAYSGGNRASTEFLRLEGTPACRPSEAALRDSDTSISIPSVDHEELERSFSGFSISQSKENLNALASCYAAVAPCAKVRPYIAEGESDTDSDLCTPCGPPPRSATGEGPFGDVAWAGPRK
Sequence of Intestinal-type alkaline phosphatase (Mus musculus, UniProt P24822) (P24822 whole entry): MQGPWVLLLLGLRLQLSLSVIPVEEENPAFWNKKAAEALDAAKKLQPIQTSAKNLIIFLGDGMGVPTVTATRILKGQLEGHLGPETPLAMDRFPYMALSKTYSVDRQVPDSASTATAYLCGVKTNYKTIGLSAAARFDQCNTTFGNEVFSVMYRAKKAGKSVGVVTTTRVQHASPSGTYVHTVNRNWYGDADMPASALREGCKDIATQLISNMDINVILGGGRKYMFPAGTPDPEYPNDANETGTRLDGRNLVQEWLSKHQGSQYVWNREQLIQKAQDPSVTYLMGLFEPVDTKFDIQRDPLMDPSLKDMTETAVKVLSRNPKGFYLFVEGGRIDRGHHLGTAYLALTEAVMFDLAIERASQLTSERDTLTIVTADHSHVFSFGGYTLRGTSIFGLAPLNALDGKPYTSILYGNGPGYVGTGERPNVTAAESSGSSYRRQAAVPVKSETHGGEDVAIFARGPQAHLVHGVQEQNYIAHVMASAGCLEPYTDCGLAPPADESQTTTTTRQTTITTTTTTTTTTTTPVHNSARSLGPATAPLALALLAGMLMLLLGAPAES
Sequence of DNA dC->dU-editing enzyme APOBEC-3A (P31941 whole entry): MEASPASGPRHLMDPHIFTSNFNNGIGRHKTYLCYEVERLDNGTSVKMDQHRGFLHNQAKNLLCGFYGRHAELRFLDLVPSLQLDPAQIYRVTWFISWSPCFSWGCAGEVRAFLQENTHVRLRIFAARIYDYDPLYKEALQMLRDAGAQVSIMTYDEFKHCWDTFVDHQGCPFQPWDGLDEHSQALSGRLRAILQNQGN

`CCCOc1cccc(C(=O)NC(=S)Nc2cccc(C(F)(F)F)c2)c1` was tested, and the IC50 (Beta-galactosidase) was > 66.6 µM (inactive).

`CCOC(=O)CSc1nnc(CNC(=O)Cc2ccccc2)n1C` was tested, and the IC50 (Coagulation factor XII) was > 50 µM (inactive).

With `O=c1c2cc(F)ccc2sn1-c1ccc(F)cc1` the IC50 [1] was > 100 µM (inactive), the IC50 (Phosphomannomutase 2) was 86.9 µM (active) and the IC50 [2] was 16.7 µM (active). For the same molecule, the IC50 [3] was > 100 µM (inactive), the IC50 [4] was > 10 µM (inactive) and the IC50 [5] was 15.5 µM (active).

`Cc1cc2nc(C3CCN(Cc4nnnn4Cc4cccs4)CC3)[nH]c2cc1C` was tested, and the IC50 [6] was 2.73 µM (active), the IC50 [3] was 5.64 µM (active) and the IC50 [7] was > 100 µM (inactive).

In the case of `COc1ccc(/N=C(\C)C2=C(O)C(=O)N(CCO)C2c2ccc([N+](=O)[O-])cc2)cc1` (configuration not stated), the EC50 [8] is reported as 0.47 µM (active).

`CC1(C)CC(=O)C2=C(C1)c1c(ccc3ccccc13)NC2c1ccc(Br)o1` (configuration not stated) was tested, and the EC50 (Caspase-7) was > 85.2 µM (inactive) and the EC50 (Caspase-3) was > 85.2 µM (inactive).

For `Cc1cc(C)cc(NC(=O)Nc2cccnc2)c1`, the EC50 [9] was 10.7 µM (active).

In the case of `O=C(CCCN1C(=O)/C(=C\c2ccco2)SC1=S)Nc1ccc(O)cc1C(=O)O`, the IC50 [10] is reported as 6.43 µM (active), the AC50 [11] is reported as 16.1 µM (active) and the AC50 (ORF 73) is reported as 47.2 µM (active). The IC50 [12] was > 122 µM (inactive), the IC50 [13] was > 100 µM (inactive) and the IC50 [14] was > 100 µM (inactive). For the same molecule, the IC50 [15] was > 122 µM (inactive).
